Patent US6166085A, “Method of producing analgesia” (priority 1996, dated 2000)
Entries after “also recorded” stand apart in the source; their conditions may differ.

How the values were obtained:
[1] = test system: sciatic nerve compound action potential; assay: Rat sciatic nerve compound action potential in vivo, direct application; design: species or system Harlan Sprague Dawley rats; conditions: for potency relative to lidocaine: compound action potential blockade; for blockade of sciatic nerve compound action potential (in words): direct application, lidocaine 2.5 mg, metabolites 5 mg, 10 min
Description: Male Harlan Sprague Dawley rats (300-350 g) were anesthetized with pentobarbital/diazepam. The sciatic nerves were sequentially and bilaterally exposed by sharp/blunt dissection from the popliteal region proximally. Electrodes were placed at the sciatic notch (stimulating), and the interossei (recording); a grounding electrode was applied remote from the field. Baseline compound action potential (CAP) (A alpha/beta) wave heights (mV) in response to stimulation 1× per minute were recorded for ten minutes to obtain a stable reference. One drug/vehicle solution was applied per nerve, at mid-nerve (mid-thigh) level, in a volume of 250 μl, and compound action potential wave height then was recorded 1× per minute for ten minutes after application.

allodynia [2] = assay: Tactile allodynia (paw withdrawal threshold, % MPE) in L5/L6 spinal nerve ligated rats, Example 3; format: in vivo, Harlan Sprague-Dawley rats; conditions: for effect on allodynia, IV (in words) / Emax at 20 mg/kg: 20 mg/kg; for Emax at 20 mg/kg: Rattus norvegicus, 1 h, IV, 3-OH L in DMSO (p=0.006 vs DMSO, N=4), MEGX over 60 minutes (P=NS vs saline), read-out: maximum effect on PWT (% MPE), IV
Description: Male Harlan Sprague-Dawley rats were used (100-200 g). Rats were housed 2-3 to a cage with corn cob bedding and Purina rat chow and water ad libitum, in a standard facility with a 12 h/12 h day/night cycle. After surgical procedures involving chronic indwelling catheter insertion, animals were housed singly to prevent catheter damage.
Rats were allowed to recover 5-7 days before further testing or surgeries.
The catheters were 9 cm in intrathecal length and terminated near the lumbar enlargement. The rostral 3 cm of catheter was tunneled under the skin to externalize between the ears. Rats with neurologic deficits were discarded.
For intravascular access, external jugular catheters were fashioned from PE-50 tubing and inserted into an external jugular vein under halothane/oxygen anesthesia. Arterial catheters were also fashioned from PE-50 with a small bouton 1 cm from the intravascular end for suture securing; they were inserted into a carotid artery, taking care to spare the surrounding nerves. All catheters were flushed with heparinized saline (10 U/ml) and tunneled subcutaneously to emerge at the posterior base of the neck, and capped when not in use.
Monoethylglycinexylidide (MEGX) and 3-hydroxy monoethyl-glycinexylidide (3-OH MEGX) were dissolved in physiologic saline; 3-hydroxylidocaine (3-OH L) was dissolved in DMSO for intravenous administration.
(§1) Intravenous drugs were delivered to awake, unrestrained rats by slow infusion using a syringe pump (Harvard apparatus 22). Intrathecal drugs were delivered to awake, briefly restrained rats in a volume of 10 μl, followed by 10 μl of vehicle flush, using a calibrated tubing extension with a 30-gauge adapter fitting the implanted intrathecal catheter, attached to a geared Hamilton 100 μl glass syringe. IT drug delivery was monitored by observing the advancement of a small air bubble down the tubing.
Rats were placed in a plastic cage with an open wire mesh bottom and allowed to accommodate for approximately fifteen minutes. […] In brief, von Frey hairs were sequentially applied using an up-and-down paradigm to the left mid-plantar hindpaw with sufficient force to cause slight filament buckling. Positive responses were noted if the paw was sharply withdrawn. […] Otherwise, PWT were calculated by noting the stimulus level at which the first change in behavior occurred, collecting four additional responses to the continued up-and-down oscillation of stimulus presentation around the response threshold, and interpolating the 50% response threshold. For some comparisons, raw thresholds were converted to percent of maximum possible effect (% MPE), designating pre-treatment PWT (baselines) as 0% effect, and assigning a cutoff value of 100% effect to thresholds ≥15 g: therefore, % MPE values near 100 indicate normal mechanical thresholds (i.e., at or near 15 g), whereas values near 0 indicate allodynia. The following equation was used to compute % MPE:
% MPE=new threshold(g)-baseline threshold(g)×100/ 15 grams--baseline
Plasma drug levels and PWT were correlated using linear regression. Serially measured PWT and % MPE were compared using repeated measures ANOVA with post-hoc testing.

allodynia [3] = conditions: cited from earlier work; for activity as metabolite with regard to allodynia suppression, earlier application: application Ser. No. 08/422,377
[4] = Observation of motor dysfunction and overt behavior / side effects; format: in vivo, Sprague-Dawley rats; conditions: IT; for motor dysfunction, IT (in words): Example 3, lidocaine and MEGX 500 μg, 3-OH L 58 μg (highest dose soluble in vehicle)
Text: Animals were also observed for the appearance of general motor dysfunction,as evidenced by inability to ambulate symmetrically and for any other overt signs of unusual activity.

mechanical allodynia = assay: Mechanical allodynia in rat model of peripheral neuropathy (L5/L6 spinal nerve ligation), intrathecal, Example 2; format: in vivo, Sprague-Dawley rats; conditions: 0.6 μmol intrathecal, pH 6.58
Description: Experiments carried out in support of the present invention were performed in a rat model of peripheral neuropathy detailed in Example 2. Briefly, in the model used, rats are subjected to a surgical procedure, described by Kim and Chung (1992), designed to reproducibly injure peripheral nerves (spinal nerves L5 and L6). These rats develop a hyperesthetic state, which can be measured using one or more paradigms known in the art. Here, allodynia was measured by stimulation of neuropathic rat hindlimb using wire hairs having graded degrees of stiffness.
[…]. Test solutions at pH 6.58 were administered intrathecally as described above. Mechanical allodynia was measured by pressing nylon filaments of varying diameters against the paw. Data are expressed in terms of 50% response threshold, which is the median buckling weight required to evoke paw withdrawal; the lower the stimulus level, the more severe the allodynia.
Male Sprague-Dawley rats (200-350 gm) were prepared with chronic lumbar intrathecal catheters inserted under halothane anesthesia (Yaksh and Rudy). Animals were placed in a prone position and the left paraspinal muscles were separated from the spinous processes at the L4 -S2 levels, as described by Kim et al. The left L5 and L6 nerve roots were exposed and tightly ligated with 6-0 surgical silk suture. The rats were allowed to recover from anesthesia. Allodynia was typically observed to occur beginning 1-2 days post surgery and continuing for as long as 45 days. For testing, animals were placed in plastic cubicles with open wire mesh bottoms. Compound dissolved in preservative-free saline solution was administered in a volume of 10 μl through the intrathecal catheter, followed by 10 μl saline to flush the catheter line. Animals were tested for allodynia at various time points after drug treatment, as described below.
To assess the threshold of a non-noxious stimulus required to produce a left hind paw withdrawal (allodynia), Von Frey hairs (ranging from 0.4-15 grams), were systematically applied to the surgically treated hind paw. Failure to evoke a response was cause to test the next stiffer hair. Evocation of a brisk withdrawal response was cause to test the next lower stimulus intensity. This paradigm was repeated according to a statistical method (Dixon, 1976) to define the 50% response threshold.
Data in FIG. 6 are expressed in terms of 50% response threshold, which is the median buckling weight required to evoke paw withdrawal; the lower the stimulus level, the more severe the allodynia. Allodynia thresholds, measured 30 minutes after injection, were plotted against dosage. Each point represents a value for a single animal.

[5] = Plasma bupivacaine level and toxicity during IV infusion; format: in vivo, Harlan Sprague-Dawley rats
Description: as §1
For bupivacaine assays, samples were obtained by withdrawing and discarding approximately 0.3 cc of blood from arterial cannulae, and then withdrawing samples of approximately 0.5 cc volume. These samples were centrifuged and the plasma supernatant was frozen at -20° C. until analysis.
Bupivacaine was extracted from the thawed samples by solid-phase extraction chromatography )Chen Y et al., Therapeut Drug Monitor 14:317-321 (1992)). Sep-Pak C-18 (300 mg) cartridges were pre-conditioned with 4 ml of methanol and then 4 ml water. […]
Bupivacaine was quantitated by capillary GC with nitrogen-phosphorus detection )Bjork M et al., Journal of Chromatography 533:229-234 (1990)). […] Split injections (1.5:1) were performed with a Hewlett Packard 7673A automatic sampler, and the chromatograms were recorded and analyzed with H-P Chemstation (MSDOS) software. […]

| Compound | potency relative to lidocaine [1] | blockade of sciatic nerve compound action potential (in words) [1] | effect on allodynia, IV (in words) (allodynia [2]; IV infusion) | Emax at 20 mg/kg (allodynia [2]) [%] | activity as metabolite with regard to allodynia suppression, earlier application (allodynia [3]) | motor dysfunction, IT (in words) [4] | also measured |
| --- | --- | --- | --- | --- | --- | --- | --- |
| CCN(CC)CC(=O)Nc1c(C)ccc(O)c1C [3-OH L, 3-hydroxylidocaine] | 1/4 | showed some activity | both potent and effective at suppressing allodynia | 76 | active metabolite with regard to allodynia suppression | no motor dysfunction was seen | local anesthetic (sodium channel blocking) activity ([1]; FIG. 12 legend): weaker local anesthetic than lidocaine; MPE, IT 20 μg (allodynia [2]; IT, 20 (unit printed "l g")): 80.2±20%; MPE, IT 58 μg (allodynia [2]; IT, 58 (unit printed "l g")): 63±16% |
| Cc1cccc(C)c1OCC(C)N (stereo not drawn) [mexiletine] | – | – | – | – | – | – | effect on mechanical allodynia (50% response threshold), 0.6 μmol (mechanical allodynia): did not block mechanical allodynia |
| CCNCC(=O)Nc1c(C)cccc1C [MEGX, Monoethylglycinexylidide] | approximately 1/3 | showed some activity | no effect | 28 | not MEGX was an active metabolite with regard to allodynia suppression | transient motor dysfunction | suppression of allodynia after IT administration (summary) (allodynia [2]; IT): not MEGX, suppressed allodynia after IT administration; effect on allodynia / PWT, IT 500 μg (in words) (allodynia [2]; IT, 500 μg, after recovery of motor function): no effect on PWT; duration of motor dysfunction (hindquarter flaccidity / weakness) ([4]; 500 μg): 5 to 10 min; motor block / motor effects (summary) ([4]; 3-hydroxy MEGX at effective anti-allodynia dose, MEGX in excess): motor blockade |
| CCCCN1CCCCC1C(=O)Nc1c(C)cccc1C (stereo not drawn) [bupivacaine] | – | – | – | – | – | – | toxicity (in words) [5]: evident toxicity as manifested by ataxia and lethargy; also recorded: Higher doses resulted in seizure; mean plasma level at seizure ([5]; N=4, unit not given): 7.4±0.7; effect of intravenous bupivacaine on allodynia (allodynia [2]; IV infusion, 15 samples from 4 rats, P=0.11, linear regression): no effect on allodynia; also recorded: inactive against allodynia; effect of IV bupivacaine on allodynia, earlier literature (allodynia [3]; Biella G et al. 1992, centrally facilitated nociceptive processing): lack of effect of bupivacaine on centrally facilitated nociceptive processing |
